Experimental findings from patent US8158647B2, “Substituted pyrrolopyridines and pyrazolopyridines as kinase modulators” (SGX Pharmaceuticals, Inc., priority 2007, dated 2012) are described below.

Experiment [1] addresses T1, purified and unphosphorylated T315I Abl kinase domain (ABL_T315I_0P) (Mus musculus, UniProt P00520, T315I).
T1 construct: The c-Abl T3151 KD (kinase domain) was purified as follows; Met-Ser-Leu (vector-derived residues) (N); made in house; host or cells: E. coli BL21(DE3) strains (Codon+RIL, or pSA0145 for the lambda phosphatase co-expression plasmid)
T1 sequence (P00520 242-493 T315I limits assumed): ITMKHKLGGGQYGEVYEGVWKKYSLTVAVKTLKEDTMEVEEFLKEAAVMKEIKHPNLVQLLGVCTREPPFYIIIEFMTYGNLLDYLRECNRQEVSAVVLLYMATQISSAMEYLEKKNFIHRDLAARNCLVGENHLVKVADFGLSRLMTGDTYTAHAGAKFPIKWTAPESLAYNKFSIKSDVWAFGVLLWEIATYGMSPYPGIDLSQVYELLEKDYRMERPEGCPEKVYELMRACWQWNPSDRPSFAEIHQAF
Nature of the experiment: c-Abl T315I (unphosphorylated kinase domain) pyruvate kinase/lactate dehydrogenase coupled enzyme assay. It is filed as biochemical. Conditions: 10 μM ATP. From the text: Although the first of these examples uses the kinase domain of a mutant form of Abl T315I (“Abl T315I KD”), the kinase assays may use various forms of mutant and wild type enzymes, including, for example, the entire protein, the kinase domain, or a portion thereof (e.g. Abl Y393F). The kinases used in the assays may also be of varying phosphorylation states. In the c-Abl example, a mutant kinase at a zero phosphorylation state was used.
c-Abl Pyruvate Kinase/Lactate Dehydrogenase Coupled Enzyme Assay
In the c-Abl Pyruvate Kinase (PK)/Lactate Dehydrogenase (LDH) Coupled Assay the protein kinase dependant phosphorylation of a substrate peptide was coupled to the oxidation of NADH. The oxidation of NADH to NAD+ was detected by monitoring a decrease in absorbance at 340 nm.
Materials: Abl substrate peptide=EAIYAAPFAKKK-OH (SEQ ID NO: 1) (Biopeptide, San Diego, Calif.); […]NADH (Sigma Cat#N-8129, FW=709.4); 2M MgCl2; 1M HEPES buffer, pH 7.5; Phosphoenolpyruvate (PEP) (Sigma Cat#P-7002, FW=234); Lactate dehydrogenase (LDH) (Worthington Biochemical Cat#2756); Pyruvate Kinase (PK) (Sigma Cat#P-9136); ATP (Sigma Cat#A-3377, FW=551); Greiner 384-well UV star plate; and purified and unphosphorylated T3151 Abl kinase domain.
Stock Solutions: 10 mM NADH (7.09 mg/ml in miliQH2O) made fresh daily; 10 mM Abl substrate peptide (13.4 mg/ml in miliQH2O) stored at −20° C.; 100 mM HEPES buffer, pH 7.5 (5 ml 1M stock+45 ml miliQH2O); 100mM MgCl2 (5 ml 2M MgCl2+95 ml dH2O); 100 mM PEP (23.4 mg/ml in dH2O) stored at −20° C.; 10mM ATP (5.51 mg/ml in dH2O) stored at −20° C. (diluted 50 μl into total of 10 ml miliQH2O daily=50 μM ATP working stock); 1000 U/ml PK (U/mg varies with lot) flash-frozen under liquid N2 and stored at −80° C.; and 1000 U/ml LDH (U/mg varies with lot) flash-frozen under liquid N2 and stored at −80° C.
Standard Assay Setup for 384-well format (50 μl reaction): 300 μM NADH; 10 mM MgCl2; 2 mM PEP; 45 U/ml PK; 60 U/ml LDH; 200 μM Abl substrate peptide; 2.5 μl test compound (in DMSO); 2 μg/ml Abl kinase domain; 10 μM ATP; 100 mM HEPES buffer. Positive controls contained DMSO with no test compound. Negative controls contained 5 μl of 0.5M EDTA (50 mM in the assay). The dephosphorylated form of the c-Abl T315I mutant was used in the biochemical screening assays. The kinase reaction was initiated at time t=0 by the addition of ATP.
Activity was measured by following the time-dependent loss of NADH by absorbance spectroscopy at 340 nm. The linear portion of the resulting progress curve was then analyzed by linear regression to get the activity in absorbance units/time, reported as the slope of that best fit line (moles/unit time can be calculated from using molar extinction coefficient for NADH at 340 nm, 6250M^−1 cm^−1).
Screening data was evaluated using the equation: Z′=1-[3*(σ++σ−)/|μ+−μ−|] (Zhang, et al., 1999 J Biomol Screening 4(2) 67-73), where μ denotes the mean and σ the standard deviation. The subscript designates positive or negative controls. The Z′ score for a robust screening assay should be ≧0.50. The typical threshold=μ+−3*σ+−. Any value that falls below the threshold was designated a “hit”.
Dose response was analyzed using the equation: y=min+{(max−min)/(1+10^[compound]−logIC50)}, where y is the observed initial slope, max=the slope in the absence of inhibitor, min=the slope at infinite inhibitor, and the IC50 is the [compound] that corresponds to ½ the total observed amplitude (Amplitude=max−min).
To measure modulation, activation, or inhibition of Abl KD, a test compound was added to the assay at a range of concentrations. Inhibitors may inhibit Abl KD activity at an IC50 in the micromolar range, the nanomolar range, or, for example, in the subnanomolar range.
An open-reading frame for c-Abl was amplified from a Mus musculus (mouse) cDNA library prepared from freshly harvested mouse liver using a commercially available kit (Invitrogen) by PCR using the following primers: […]
The c-Abl T3151 KD (kinase domain) was purified as follows. […]

The target in the next experiment is T2, ABL P210WT BAF3 cells (Homo sapiens, UniProt P00519).
T2 construct: ABL P210WT BAF3; fused on or other part: P11274 (Breakpoint cluster region protein)
Put plainly: 96-well XTT cell survival assay, BaF3 ABL P210WT. It is filed as cell-based. Conditions: ABL P210 WT, 72 hours, read-out: CELL BIO ABL P210WT BAF3 XTT (IC50). As to the method:
(§1) MV4-11 and THP cells were maintained in Iscove's Modified Dulbecco's Medium supplemented with 10% fetal bovine serum (FBS) and penicillin/streptomycin, Ba/F3 cells were maintained in RPMI 1640 supplemented with 10% FBS, penicillin/streptomycin and 5 ng/ml recombinant mouse IL-3.
(§2) Compounds were tested in the following assays in duplicate.
(§3) 96-well XTT assay: Cells (e.g. BaF3 315I, M3511, or E255K cells) were grown in growth media containing various concentrations of compounds (duplicates) on a 96-well plate for 72 hours at 37° C. The starting cell number was 5000-8000 cells per well and volume was 120 μl. At the end of the 72-hour incubation, 40 μl of XTT labeling mixture (50:1 solution of sodium 3′-[1-(phenylamino-carbonyl)-3,4-tetrazolium]-bis(4-methoxy-6-nitro) benzene sulfonic acid hydrate and Electron-coupling reagent: PMS (N-methyl dibenzopyrazine methyl sulfate) were added to each well of the plate. After an additional 2-6 hours of incubation at 37° C., the absorbance reading at 405 nm with background correction at 650 nm was measured with a spectrophotometer.
On the technique in general: Tetrazolium dyes change colour on reduction, which living cells bring about.

The target of another experiment is T3, ABL T315I BAF3 cells (Homo sapiens, UniProt P00519, T315I, cells depend on it).
T3 construct: ABL T315I BAF3; fused on or other part: P11274 (Breakpoint cluster region protein)
Nature of the experiment: 96-well XTT cell survival assay, BaF3 ABL T315I. It is filed as cell-based. Conditions: 72 hours, read-out: CELL BIO ABL T315I BAF3 XTT (IC50). The procedure:
as §1, §2, §3

Take `COc1ccccc1-c1c[nH]c2ncc(-c3cncc(C(O)C(=O)N(C)C)c3)c(C(F)(F)F)c12` (stereo not shown) [2-Hydroxy-2-{5-[3-(2-methoxy-phenyl)-4-trifluoromethyl-1H-pyrrolo[2,3-b]pyridin-5-yl]-pyridin-3-yl}-N,N-dimethyl-acetamide]: the “ABL_T315I_0P (IC50)” value in experiment [1] is given as “D (<0.01 μM)”. Further, the GI50 on ABL P210WT BAF3 cells and on ABL T315I BAF3 cells was 10 to 100 nM in each case.

For `COc1ccccc1-c1c[nH]c2ncc(Br)c(Cl)c12` [5-Bromo-4-chloro-3-(2-methoxy-phenyl)-1H-pyrrolo[2,3-b]pyridine], the “ABL_T315I_0P (IC50)” value in experiment [1] is recorded as “C (0.1-0.01 μM)”.

On to `COc1ncccc1-c1c[nH]c2ncc(-c3cncc(C(O)C(=O)N(C)C)c3)c(Cl)c12` (stereo not shown) [2-{5-[4-Chloro-3-(2-methoxy-pyridin-3-yl)-1H-pyrrolo[2,3-b]pyridin-5-yl]-pyridin-3-yl}-2-hydroxy-N,N-dimethyl-acetamide], for which, in experiment [1], the “ABL_T315I_0P (IC50)” value is on record as “D (<0.01 μM)”. Besides, the results for the GI50 on ABL P210WT BAF3 cells and at ABL T315I BAF3 cells were 10 to 100 nM and 100 to 1000 nM, respectively.

As to `Nc1ncc(-c2cnc3[nH]cc(-c4cc(F)ccc4F)c3c2Cl)cc1C(=O)N1CCCC1CO` (stereo not shown) [{2-Amino-5-[4-chloro-3-(2,5-difluoro-phenyl)-1H-pyrrolo[2,3-b]pyridin-5-yl]-pyridin-3-yl}-(2-hydroxymethyl-pyrrolidin-1-yl)-methanone], the “ABL_T315I_0P (IC50)” value in experiment [1] was “D (<0.01 μM)”. Further, the GI50 at ABL P210WT BAF3 cells and at ABL T315I BAF3 cells was 100 to 1000 nM in each case.

Regarding `CN(C)C(=O)c1cc(-c2cnc3[nH]cc(-c4ccccc4F)c3c2Cl)cnc1N` [2-Amino-5-[4-chloro-3-(2-fluoro-phenyl)-1H-pyrrolo[2,3-b]pyridin-5-yl]-N,N-dimethyl-nicotinamide], the “ABL_T315I_0P (IC50)” value in experiment [1] is “D (<0.01 μM)”. Also, the GI50 on ABL P210WT BAF3 cells and on ABL T315I BAF3 cells was 100 to 1000 nM in each case.

`CN(C)C(=O)c1cncc(-c2cnc3[nH]cc(-c4ccccc4)c3c2Cl)c1` [5-(4-Chloro-3-phenyl-1H-pyrrolo[2,3-b]pyridin-5-yl)-N,N-dimethyl-nicotinamide]: the “ABL_T315I_0P (IC50)” value in experiment [1] is listed as “D (<0.01 μM)”. For the same molecule, the GI50 at ABL P210WT BAF3 cells and on ABL T315I BAF3 cells was greater than 1000 nM in each case.

Consider `OC(c1cncc(-c2cnc3[nH]cc(-c4cccc(F)c4F)c3c2Cl)c1)c1ncccc1F` (stereo not shown) [{5-[4-Chloro-3-(2,3-difluoro-phenyl)-1H-pyrrolo[2,3-b]pyridin-5-yl]-pyridin-3-yl}-(3-fluoro-pyridin-2-yl)-methanol], for which the “ABL_T315I_0P (IC50)” value in experiment [1] was “D (<0.01 μM)”. Besides, the GI50 at ABL P210WT BAF3 cells and at ABL T315I BAF3 cells was 100 to 1000 nM each time.

`CSc1c(Br)cnc2[nH]cc(I)c12` [5-Bromo-3-iodo-4-methylsulfanyl-1H-pyrrolo[2,3-b]pyridine]: in experiment [1], the “ABL_T315I_0P (IC50)” value is listed as “A (>1.0 μM)”.

Regarding `CN(C)C(=O)C(O)c1cncc(-c2cnc3[nH]nc(-c4ccccc4)c3c2Cl)c1` (stereo not shown) [2-[5-(4-Chloro-3-phenyl-1H-pyrazolo[3,4-b]pyridin-5-yl)-pyridin-3-yl]-2-hydroxy-N,N-dimethyl-acetamide], the “ABL_T315I_0P (IC50)” value in experiment [1] is “B (1.0-0.1 μM)”.

`COc1ccccc1-c1c[nH]c2ncc(-c3cnn(C)c3)c(N)c12` [3-(2-Methoxy-phenyl)-5-(1-methyl-1H-pyrazol-4-yl)-1H-pyrrolo[2,3-b]pyridin-4-ylamine]: in experiment [1], the “ABL_T315I_0P (IC50)” value is “B (1.0-0.1 μM)”.

For `COc1ccccc1-c1c[nH]c2ncc(-c3cncc(C(O)C(=O)N(C)C)c3)c(N(C)C)c12` (stereo not shown) [2-{5-[4-Dimethylamino-3-(2-methoxy-phenyl)-1H-pyrrolo[2,3-b]pyridin-5-yl]-pyridin-3-yl}-2-hydroxy-N,N-dimethyl-acetamide], the “ABL_T315I_0P (IC50)” value in experiment [1] was “B (1.0-0.1 μM)”.

`CC(C)c1ncncc1-c1c[nH]c2ncc(-c3cncc(C(O)C(=O)N(C)C)c3)c(Cl)c12` (stereo not shown) [2-{5-[4-Chloro-3-(4-isopropyl-pyrimidin-5-yl)-1H-pyrrolo[2,3-b]pyridin-5-yl]-pyridin-3-yl}-2-hydroxy-N,N-dimethyl-acetamide]: the “ABL_T315I_0P (IC50)” value in experiment [1] is “B (1.0-0.1 μM)”.

As for `COc1ccccc1-c1c[nH]c2ncc(Br)c(NCCO)c12` [2-[5-Bromo-3-(2-methoxy-phenyl)-1H-pyrrolo[2,3-b]pyridin-4-ylamino]-ethanol], in experiment [1], the “ABL_T315I_0P (IC50)” value is “B (1.0-0.1 μM)”.

As to `CN(C)C(=O)C(O)c1cncc(-c2cnc3[nH]nc(-c4ccccc4F)c3c2Cl)c1` (stereo not shown) [2-{5-[4-Chloro-3-(2-fluoro-phenyl)-1H-pyrazolo[3,4-b]pyridin-5-yl]-pyridin-3-yl}-2-hydroxy-N,N-dimethyl-acetamide], the “ABL_T315I_0P (IC50)” value in experiment [1] is recorded as “B (1.0-0.1 μM)”.

`CN(C)C(=O)C(=O)c1cncc(-c2cnc3[nH]cc(-c4ccc(F)cc4)c3c2Cl)c1` [2-{5-[4-Chloro-3-(4-fluoro-phenyl)-1H-pyrrolo[2,3-b]pyridin-5-yl]-pyridin-3-yl}-N,N-dimethyl-2-oxo-acetamide]: the “ABL_T315I_0P (IC50)” value in experiment [1] is listed as “B (1.0-0.1 μM)”.

`COc1cc(C#N)ccc1-c1c[nH]c2ncc(-c3cnc(N)c(C(=O)N(C)C)c3)c(Cl)c12` [2-Amino-5-[4-chloro-3-(4-cyano-2-methoxy-phenyl)-1H-pyrrolo[2,3-b]pyridin-5-yl]-N,N-dimethyl-nicotinamide]: in experiment [1], the “ABL_T315I_0P (IC50)” value was “C (0.1-0.01 μM)”.
